Here are results for four compounds from patent US7115617B2, “Amino-substituted pyrimidinyl derivatives and methods of use” (Amgen Inc., priority 2001, dated 2006).

The structures appear in SMILES notation. Where only a bound is given, the exact number is not on record here.

The subject of the assay is 3T3 proliferation. As to the kind of experiment: IGF-1-induced DNA synthesis (3H-thymidine incorporation). The format is cell-based. As to conditions: Rattus norvegicus; activated overnight with 50 ng/mL IGF-1; read-out: inhibited 3T3 proliferation (IC50, thymidine incorporation). The method, then:
Human tumor cell lines or a rat fibroblast cell line are plated out in flat-well plates in complete medium and allowed to adhere overnight. The cells are then starved in medium containing 0.1% bovine serum albumin (BSA) overnight, pre-incubated for 1 h with or without dilutions of compound, then activated overnight with 50 ng/mL insulin-like growth factor (IGF-1). Proliferation is determined by the level of ^3H-thymidine incorporation into DNA. IC50's are determined by comparing the level of thymidine incorporation found in the presence of compound compared to controls.
(Uptake of a labelled nucleoside into DNA is a usual measure of proliferation.)
As for `COc1cc(Nc2nccc(Nc3cc(-c4ccccc4)on3)n2)ccc1N1CCOCC1` [Example 14, N^2-(3-Methoxy-4-morpholin-4-yl-phenyl)-N^4-(5-phenyl-isoxazol-3-yl)-pyrimidine-2,4-diamine], the IC50 was less than 150 nM.

`COc1cc(Nc2nccc(Nc3cc(-c4ccccc4)on3)n2)cc(OC)c1OC` [Example 15, N^2-(3,4,5-Trimethoxyphenyl)-N^4-(5-phenylisoxazol-3-yl)-2,4-pyrimidinediamine]: the IC50 was less than 150 nM.

`COc1cc(Nc2nccc(Nc3cc(C4CCCCC4)no3)n2)cc(OC)c1OC` [Example 17, N^2-(3,4,5-Trimethoxyphenyl)-N^4-(3-cyclohexylisoxazol-5-yl)-2,4-pyrimidinediamine]: the IC50 was less than 150 nM.

In the case of `COc1cc(C)c(Nc2nccc(Nc3cc(C45CC6CC(CC(C6)C4)C5)on3)n2)cc1OC` [Example 18, N^2-(4,5-Dimethoxy-2-methylphenyl)-N^4-(5-adamantylisoxazol-3-yl)-2,4-pyrimidinediamine], the IC50 was less than 150 nM.
